These results are taken from ChEMBL document CHEMBL1201862, “PubChem BioAssay data set” (2004).

Test systems include NCI-H460; OVCAR-5; HL-60; CAKI-1; SNB-75; SK-OV-3; MDA-MB-435; HOP-92; SR; HCT-15; EKVX; COLO 205; SF-268; NCI-H226; SN12C; UACC-257; PC-3; MOLT-4; UO-31; HCT-116.
What all share (assay): NCI anticancer screen, dose series, 48 h

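Each compound was tested at five concentrations against cells in 96-well plates for 48 hours. GI50 marks 50% less growth.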 Activity calls are given as the source filed them. Rule as the data show it: active = GI50 up to about 1.1 µM and inactive = higher.

On to `Cn1c(=O)c2c(nc3sc4c(n32)C(=O)c2c(O)ccc(O)c2C4=O)n(C)c1=O`, for which the GI50 was 20.5 µM (inactive) in the assay on NCI-H460; 28 µM (inactive) in the assay on OVCAR-5; 0.51 µM (active) in the assay with HL-60; 6.04 µM (inactive) in the assay with CAKI-1; 2.99 µM (inactive) in the assay on SNB-75; 40.7 µM (inactive) with SK-OV-3. Also, the GI50 is 4.78 µM (inactive) in the assay on MDA-MB-435; 2.66 µM (inactive) with HOP-92; 0.598 µM (active) with SR; 1.73 µM with HCT-15; 13 µM (inactive) in the assay with EKVX; 3.46 µM (inactive) in the assay with COLO 205. Besides, the GI50 in the assay with SF-268 was 6.04 µM (inactive); with NCI-H226, 53.8 µM (inactive); in the assay on SN12C, 1.63 µM (inactive); in the assay on UACC-257, 11.2 µM (inactive); in the assay with PC-3, 5.4 µM (inactive); in the assay with MOLT-4 it was 1.31 µM (inactive). Besides, the GI50 in the assay with UO-31 is 3.74 µM (inactive); in the assay with HCT-116, 1.87 µM (inactive).
